# Assay results taken from US20260098030A1, “NEGATIVE ALLOSTERIC MODULATORS OF METABOTROPIC GLUTAMATE RECEPTOR 2” (Vanderbilt University, priority 2022, published 2026).
# Target: T1, rat mGlu2 (Rattus norvegicus, UniProt P31421)
# T1 construct: expressed in transfected cells; host or cells: HEK-293 cells stably co-expressing GIRK channels
# Experiment: mGlu GIRK cell-based thallium flux assay, rat mGlu2
# Details: HEK-293 cells co-expressing rat mGlu2 and GIRK, EC80 glutamate
# Method: Human embryonic kidney (HEK-293) cell lines stably co-expressing human or rat mGlu2 and G protein-coupled inwardly rectifying potassium (GIRK) channels, or human mGlu3 and GIRK, were used for in vitro evaluation of compound activity in thallium flux assay using a fluorescent thallium indicator dye.
# The day before the assay, GIRK cells co-expressing human mGlu3, human or rat mGlu2, as described above, were plated in black-walled, clear-bottomed, amine-coated 384-well plates at a density of 15,000 cells/20 μL/well in the assay medium (glutamine-depleted basal DMEM supplemented with 10% dialyzed FBS, 20 mM HEPES, 1 mM sodium pyruvate). Cells were incubated at 37° C. in the presence of 5% CO2. The next day, assay buffer (Hanks balanced salt solution, 20 mM HEPES, 4.16 mM sodium bicarbonate, pH 7.2) was prepared to dilute compounds and Thallos AM fluorescent dye solution. The 2× Thallos dye solution (final concentration 0.34 μM to the cells) was prepared by mixing the dye stock (2.97 mM in DMSO) to 1:1 with 10% pluronic acid before adding to the assay buffer. Cells were washed with assay buffer using a microplate washer to remove the medium, resulting in 20 μL of buffer remaining in each well. Immediately, 20 μL of 2× Thallos dye solution was added to cells, and incubated for one hour at 25° C. During the cell dye loading incubation period, a 10-point concentration serial dilution of compound was created from a 10 mM DMSO compound stock by performing a 1:3 serial dilution in DMSO using the Bravo liquid handler. The 2× compound plate was generated by transferring 0.24 μL of the diluted compound in each well to a daughter plate using an Echo acoustic liquid handler. This is further diluted in 40 μL assay buffer, resulting in a range from 30 μM to 1.5 nM final concentration in the assay. The agonist plate (5×) was prepared to include EC80 glutamate concentration (a concentration to elicit 80% of a maximally effective glutamate concentration) in thallium buffer (125 mM […], 1 mM magnesium sulfate, 1.8 mM calcium sulfate, 5 mM glucose, 10 mM HEPES, pH 7.2, 12.5 mM thallium sulfate).
# After dye-loading, cell plates were washed with assay buffer to remove excess extracellular dye using a microplate washer, resulting in 20 μL of buffer remaining in each well. After a ten-minute equilibration period, cell, compound and agonist plates were loaded into a Hamamatsu μCell kinetic imaging plate reader equipped with liquid handler to monitor fluorescence changes at 480 nm excitation and 540 nm emission settings. Briefly, after collection of baseline fluorescence, 20 μL of compound was added and incubated for two minutes and twenty seconds. This is immediately followed by adding 10 μL of glutamate-thallium buffer to the wells containing compound. The fluorescent signal was monitored an additional 2.5 minutes after the glutamate addition. Multiple reference wells containing no compound received either no glutamate (for a baseline reference), EC80 glutamate, or ECmax glutamate (for normalization to maximum response). Fluorescence was measured throughout the experiment at a frequency of 1 measurement per every 2 seconds before the glutamate addition and a frequency of 1 measurement per every 1 second after the glutamate addition. Each compound concentration series occurred one time in each plate, and replicates from two or three plates were used in each experimental run. Thallium solutions were handled and disposed of according to guidelines from the Vanderbilt University Chemical Safety department.
# Data were normalized using a static ratio function (F/F0) by dividing every fluorescent measurement by the initial fluorescent value for the corresponding well. The increase in signal resulting from the glutamate/thallium addition of the second add was measured by determining the slope from 3 seconds to 13 seconds after the addition. […]
# T1 sequence (P31421 19-872): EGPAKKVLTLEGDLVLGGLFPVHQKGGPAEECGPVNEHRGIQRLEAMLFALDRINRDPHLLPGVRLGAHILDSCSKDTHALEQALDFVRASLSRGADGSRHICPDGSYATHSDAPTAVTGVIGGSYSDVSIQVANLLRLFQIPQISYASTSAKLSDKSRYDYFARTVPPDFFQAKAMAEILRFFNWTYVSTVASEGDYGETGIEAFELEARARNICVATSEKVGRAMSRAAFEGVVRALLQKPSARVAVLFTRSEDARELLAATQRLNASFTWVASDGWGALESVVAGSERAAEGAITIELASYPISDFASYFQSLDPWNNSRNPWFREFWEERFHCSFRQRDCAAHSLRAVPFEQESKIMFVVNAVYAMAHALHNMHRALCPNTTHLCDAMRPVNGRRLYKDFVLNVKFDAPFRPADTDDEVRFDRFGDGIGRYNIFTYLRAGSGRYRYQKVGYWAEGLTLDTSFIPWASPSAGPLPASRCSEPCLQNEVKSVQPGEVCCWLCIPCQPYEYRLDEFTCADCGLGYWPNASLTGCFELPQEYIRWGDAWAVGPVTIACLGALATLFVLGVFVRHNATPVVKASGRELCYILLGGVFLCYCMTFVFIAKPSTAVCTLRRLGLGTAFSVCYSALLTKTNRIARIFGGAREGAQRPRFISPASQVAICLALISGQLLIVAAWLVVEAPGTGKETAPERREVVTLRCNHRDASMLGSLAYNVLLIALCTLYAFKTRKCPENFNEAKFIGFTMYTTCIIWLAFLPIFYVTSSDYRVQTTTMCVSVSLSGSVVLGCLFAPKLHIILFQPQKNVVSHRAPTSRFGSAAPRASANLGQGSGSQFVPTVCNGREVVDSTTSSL
row,IC50,SMILES
1,2.46 µM,"Cc1ccc(-c2cc3c(cc2-c2ccc(F)cc2)C(=O)NC3)cn1 [Compound 6, 6-(4-fluorophenyl)-5-(6-methylpyridin-3-yl)isoindolin-1-one]"
2,> 10 µM,"Cc1nc2cc(-c3cc4c(cc3-c3ccc(F)cc3)C(=O)NC4)ccc2[nH]1 [Compound 10, 6-(4-fluorophenyl)-5-(2-methyl-1H-benzo[d]imidazol-5-yl)isoindolin-1-one]"
3,> 10 µM,"O=C1NCc2cc(-c3ccc4ncsc4c3)c(-c3ccc(F)cc3)cc21 [Compound 11, 5-(benzo[d]thiazol-6-yl)-6-(4-fluorophenyl)isoindolin-1-one]"
4,0.094 µM,"O=C1NCc2cc(-c3ccc4ocnc4c3)c(-c3ccc(F)cc3)cc21 [Compound 12, 5-(benzo[d]oxazol-5-yl)-6-(4-fluorophenyl)isoindolin-1-one]"
5,0.161 µM,"O=C1NCc2cc(-c3ccc4scnc4c3)c(-c3ccc(F)cc3)cc21 [Compound 13, 5-(benzo[d]thiazol-5-yl)-6-(4-fluorophenyl)isoindolin-1-one]"
6,2.25 µM,"O=C1NCc2cc(-c3ccc4cnccc4c3)c(-c3ccc(F)cc3)cc21 [Compound 14, 6-(4-fluorophenyl)-5-(isoquinolin-6-yl)isoindolin-1-one]"
7,4.06 µM,"O=C1NCc2cc(-c3ccc4ccncc4c3)c(-c3ccc(F)cc3)cc21 [Compound 15, 6-(4-fluorophenyl)-5-(isoquinolin-7-yl)isoindolin-1-one]"
8,> 10 µM,"Cn1cc2cc(-c3cc4c(cc3-c3ccc(F)cc3)C(=O)NC4)cnc2n1 [Compound 16, 6-(4-fluorophenyl)-5-(2-methyl-2H-pyrazolo[3,4-b]pyridin-5-yl)isoindolin-1-one]"
9,1.24 µM,"Cn1cc2cccc(-c3cc4c(cc3-c3ccc(F)cc3)C(=O)NC4)c2n1 [Compound 17, 6-(4-fluorophenyl)-5-(2-methyl-2H-indazol-7-yl)isoindolin-1-one]"
10,4.33 µM,"O=C1NCc2cc(-c3ccc4cccnc4c3)c(-c3ccc(F)cc3)cc21 [Compound 18, 6-(4-fluorophenyl)-5-(quinolin-7-yl)isoindolin-1-one]"
11,4.31 µM,"O=C1NCc2cc(-c3ccc4ncccc4c3)c(-c3ccc(F)cc3)cc21 [Compound 19, 6-(4-fluorophenyl)-5-(quinolin-6-yl)isoindolin-1-one]"
12,8.31 µM,"O=C1NCc2cc(-c3ccc4nccn4c3)c(-c3ccc(F)cc3)cc21 [Compound 20, 6-(4-fluorophenyl)-5-(imidazo[1,2-a]pyridin-6-yl)isoindolin-1-one]"
13,3.81 µM,"O=C1NCc2cc(-c3cc(F)c4ncccc4c3F)c(-c3ccc(F)cc3)cc21 [Compound 21, 5-(5,8-difluoroquinolin-6-yl)-6-(4-fluorophenyl)isoindolin-1-one]"
14,2.15 µM,"O=C1NCc2cc(-c3ccc4scnc4c3)c(-c3ccc(F)cc3F)cc21 [Compound 23, 5-(benzo[d]thiazol-5-yl)-6-(2,4-difluorophenyl)isoindolin-1-one]"
15,2.35 µM,"Cn1cc2ccc(-c3cc4c(cc3-c3ccc(F)cc3F)C(=O)NC4)cc2n1 [Compound 25, 6-(2,4-difluorophenyl)-5-(2-methyl-2H-indazol-6-yl)isoindolin-1-one]"
16,> 10 µM,"O=C1NCc2cc(-c3ccc(C4CC4)nc3)c(-c3ccc(F)cc3)cc21 [Compound 26, 5-(6-cyclopropylpyridin-3-yl)-6-(4-fluorophenyl)isoindolin-1-one]"
17,> 10 µM,"O=C1NCc2cc(-c3ccc(C(F)(F)F)nc3)c(-c3ccc(F)cc3)cc21 [Compound 27, 6-(4-fluorophenyl)-5-(6-(trifluoromethyl)pyridin-3-yl)isoindolin-1-one]"
18,1.93 µM,"Cn1cc2c(-c3cc4c(cc3-c3ccc(F)cc3)C(=O)NC4)cccc2n1 [Compound 28, 6-(4-fluorophenyl)-5-(2-methyl-2H-indazol-4-yl)isoindolin-1-one]"
19,3.6 µM,"Cc1ccc(-c2cc3c(cc2-c2ccc(F)cc2)C(=O)NC3)c(C)n1 [Compound 29, 5-(2,6-dimethylpyridin-3-yl)-6-(4-fluorophenyl)isoindolin-1-one]"

row,IC50,SMILES
1,> 10 µM,"Cc1nc(F)ccc1-c1cc2c(cc1-c1ccc(F)cc1)C(=O)NC2 [Compound 30, 5-(6-fluoro-2-methylpyridin-3-yl)-6-(4-fluorophenyl)isoindolin-1-one]"
2,> 10 µM,"O=C1NCc2cc(-c3ccc(F)nc3F)c(-c3ccc(F)cc3)cc21 [Compound 32, 5-(2,6-difluoropyridin-3-yl)-6-(4-fluorophenyl)isoindolin-1-one]"
3,> 10 µM,"N#Cc1ccc(-c2cc3c(cc2-c2ccc(F)cc2)C(=O)NC3)cn1 [Compound 33, 5-(6-(4-fluorophenyl)-1-oxoisoindolin-5-yl)picolinonitrile]"
4,> 10 µM,"CN(C)c1ccc(-c2cc3c(cc2-c2ccc(F)cc2)C(=O)NC3)cn1 [Compound 34, 5-(6-(dimethylamino)pyridin-3-yl)-6-(4-fluorophenyl)isoindolin-1-one]"
5,1.03 µM,"Cn1ccc(-c2cc3c(cc2-c2ccc(F)cc2)C(=O)NC3)n1 [Compound 35, 6-(4-fluorophenyl)-5-(1-methyl-1H-pyrazol-3-yl)isoindolin-1-one]"
6,> 10 µM,"CC(=O)Nc1ccc(-c2cc3c(cc2-c2ccc(F)cc2)C(=O)NC3)cn1 [Compound 36, N-(5-(6-(4-fluorophenyl)-1-oxoisoindolin-5-yl)pyridin-2-yl)acetamide]"
7,> 10 µM,"Cc1cc(F)ncc1-c1cc2c(cc1-c1ccc(F)cc1)C(=O)NC2 [Compound 37, 5-(6-fluoro-4-methylpyridin-3-yl)-6-(4-fluorophenyl)isoindolin-1-one]"
8,1.96 µM,"O=C1NCc2cc(-c3cnc4[nH]ccc4c3)c(-c3ccc(F)cc3)cc21 [Compound 38, 6-(4-fluorophenyl)-5-(1H-pyrrolo[2,3-b]pyridin-5-yl)isoindolin-1-one]"
9,> 10 µM,"CN(C)c1ncccc1-c1cc2c(cc1-c1ccc(F)cc1)C(=O)NC2 [Compound 39, 5-(2-(dimethylamino)pyridin-3-yl)-6-(4-fluorophenyl)isoindolin-1-one]"
10,> 10 µM,"O=C1NCc2cc(-c3cccnc3F)c(-c3ccc(F)cc3)cc21 [Compound 40, 6-(4-fluorophenyl)-5-(2-fluoropyridin-3-yl)isoindolin-1-one]"
11,> 10 µM,"Cc1ncccc1-c1cc2c(cc1-c1ccc(F)cc1)C(=O)NC2 [Compound 41, 6-(4-fluorophenyl)-5-(2-methylpyridin-3-yl)isoindolin-1-one]"
12,7.55 µM,"CC(C)c1ncccc1-c1cc2c(cc1-c1ccc(F)cc1)C(=O)NC2 [Compound 42, 6-(4-fluorophenyl)-5-(2-isopropylpyridin-3-yl)isoindolin-1-one]"
13,> 10 µM,"O=C1NCc2cc(-c3cccnc3C3CC3)c(-c3ccc(F)cc3)cc21 [Compound 43, 5-(2-cyclopropylpyridin-3-yl)-6-(4-fluorophenyl)isoindolin-1-one]"
14,> 10 µM,"O=C1NCc2cc(-c3cccnc3)c(-c3ccc(F)cc3)cc21 [Compound 44, 6-(4-fluorophenyl)-5-(pyridin-3-yl)isoindolin-1-one]"
15,> 10 µM,"O=C1NCc2cc(-c3ccccn3)c(-c3ccc(F)cc3)cc21 [Compound 45, 6-(4-fluorophenyl)-5-(pyridin-2-yl)isoindolin-1-one]"
16,> 10 µM,"Cc1n[nH]c2ccc(-c3cc4c(cc3-c3ccc(F)cc3)C(=O)NC4)cc12 [Compound 47, 6-(4-fluorophenyl)-5-(3-methyl-1H-indazol-5-yl)isoindolin-1-one]"
17,> 10 µM,"Cc1ccncc1-c1cc2c(cc1-c1ccc(F)cc1)C(=O)NC2 [Compound 48, 6-(4-fluorophenyl)-5-(4-methylpyridin-3-yl)isoindolin-1-one]"
18,> 10 µM,"O=C1NCc2cc(-c3ccc4[nH]ccc4c3)c(-c3ccc(F)cc3)cc21 [Compound 49, 6-(4-fluorophenyl)-5-(1H-indol-5-yl)isoindolin-1-one]"
